Data as given in patent US8415469B2, “Compounds and methods for kinase modulation, and indications therefor” (Plexxikon Inc., priority 2005, dated 2013).

Legend:
Assay type in all cases: biochemical
B-Raf V600E = biological target: T1, B-Raf V600E (Homo sapiens, UniProt P15056, V600E); assay: AlphaScreen kinase assay, B-Raf V600E; settings: read-out: IC50, activity toward kinase B-Raf V600E
T1 construct: P4254. pFastBacBD-CDC37 BRAF D437-K722-X, V600E; His6 with pFastBac HT leader (TEV site) (N); made in house; host or cells: Sf9 (baculovirus; chaperone CDC37 co-expressed)
T1 sequence (P15056 with tags, fused parts or gaps V600E): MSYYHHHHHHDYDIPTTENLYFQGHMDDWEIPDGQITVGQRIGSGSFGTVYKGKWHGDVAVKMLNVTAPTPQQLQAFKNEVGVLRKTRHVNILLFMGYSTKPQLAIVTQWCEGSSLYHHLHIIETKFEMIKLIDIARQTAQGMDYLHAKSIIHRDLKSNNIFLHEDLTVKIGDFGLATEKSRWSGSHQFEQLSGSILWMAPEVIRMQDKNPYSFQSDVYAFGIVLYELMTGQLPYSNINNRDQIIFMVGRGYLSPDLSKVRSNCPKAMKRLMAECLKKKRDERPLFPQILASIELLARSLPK

Btk = biological target: T2, Btk (Homo sapiens, UniProt Q06187); assay: Z'-Lyte FRET kinase assay (Invitrogen), Btk; settings: read-out: IC50, activity toward kinase Btk
T2 construct: purchased Invitrogen (assay run by Invitrogen)
T2 sequence (Q06187 whole entry): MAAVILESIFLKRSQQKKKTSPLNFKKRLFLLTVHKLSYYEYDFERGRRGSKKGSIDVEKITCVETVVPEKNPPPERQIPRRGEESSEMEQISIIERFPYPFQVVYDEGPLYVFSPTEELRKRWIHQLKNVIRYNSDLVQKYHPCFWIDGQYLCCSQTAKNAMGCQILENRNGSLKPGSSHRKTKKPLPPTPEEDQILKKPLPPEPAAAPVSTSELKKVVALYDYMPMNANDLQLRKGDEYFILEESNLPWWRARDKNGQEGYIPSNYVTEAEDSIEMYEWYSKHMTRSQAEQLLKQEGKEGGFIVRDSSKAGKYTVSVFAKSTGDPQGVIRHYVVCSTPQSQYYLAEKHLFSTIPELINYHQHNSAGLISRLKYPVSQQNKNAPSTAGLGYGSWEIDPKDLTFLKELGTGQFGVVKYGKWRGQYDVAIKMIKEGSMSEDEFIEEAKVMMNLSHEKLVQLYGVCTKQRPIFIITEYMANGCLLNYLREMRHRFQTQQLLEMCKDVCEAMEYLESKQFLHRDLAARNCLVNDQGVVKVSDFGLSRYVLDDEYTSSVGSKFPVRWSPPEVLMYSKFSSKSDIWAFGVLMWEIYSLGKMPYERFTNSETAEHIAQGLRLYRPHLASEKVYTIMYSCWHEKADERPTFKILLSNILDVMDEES

FGFR1 = biological target: T3, FGFR1 (Homo sapiens, UniProt P11362, C488A/C584S); assay: AlphaScreen kinase assay, FGFR1; settings: read-out: IC50, activity toward kinase FGFR
T3 construct: P1351.pET N6 BI-PTP FGFR A458-E765-X C488A, C584S; made in house; host or cells: E. coli (PTP1B co-expressed)
T3 sequence (P11362 458-765 C488A/C584S): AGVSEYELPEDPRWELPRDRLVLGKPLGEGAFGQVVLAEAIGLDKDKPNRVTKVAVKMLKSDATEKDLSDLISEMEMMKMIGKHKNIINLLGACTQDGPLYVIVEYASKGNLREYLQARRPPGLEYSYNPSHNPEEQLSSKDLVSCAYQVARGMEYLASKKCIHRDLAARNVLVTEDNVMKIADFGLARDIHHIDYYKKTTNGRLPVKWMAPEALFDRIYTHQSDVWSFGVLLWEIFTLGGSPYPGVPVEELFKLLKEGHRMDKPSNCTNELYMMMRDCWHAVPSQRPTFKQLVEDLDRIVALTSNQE

Jnk3 = biological target: T4, Jnk3 (Homo sapiens, UniProt P53779); assay: AlphaScreen kinase assay, Jnk3; settings: read-out: IC50, activity toward kinase Jnk3
T4 construct: purchased Upstate Biotechnology
T4 sequence (P53779 whole entry): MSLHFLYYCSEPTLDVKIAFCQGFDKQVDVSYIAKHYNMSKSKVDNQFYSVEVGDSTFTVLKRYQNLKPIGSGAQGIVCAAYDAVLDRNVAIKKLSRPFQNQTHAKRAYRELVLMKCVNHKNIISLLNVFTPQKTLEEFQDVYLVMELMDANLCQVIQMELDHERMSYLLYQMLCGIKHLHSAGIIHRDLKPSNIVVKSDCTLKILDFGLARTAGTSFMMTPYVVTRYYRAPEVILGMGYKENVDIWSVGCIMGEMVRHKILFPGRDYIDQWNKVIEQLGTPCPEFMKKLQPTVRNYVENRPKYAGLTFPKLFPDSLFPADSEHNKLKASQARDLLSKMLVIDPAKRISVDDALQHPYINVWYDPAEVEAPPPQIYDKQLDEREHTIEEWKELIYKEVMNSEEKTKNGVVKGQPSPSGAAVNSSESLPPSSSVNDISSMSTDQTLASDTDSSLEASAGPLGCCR

Kdr = biological target: T5, Kdr (Homo sapiens, UniProt P35968); assay: Z'-Lyte FRET kinase assay (Invitrogen), Kdr; settings: read-out: IC50, activity toward kinase Kdr
T5 construct: purchased Invitrogen (assay run by Invitrogen)
T5 sequence (P35968 20-1356): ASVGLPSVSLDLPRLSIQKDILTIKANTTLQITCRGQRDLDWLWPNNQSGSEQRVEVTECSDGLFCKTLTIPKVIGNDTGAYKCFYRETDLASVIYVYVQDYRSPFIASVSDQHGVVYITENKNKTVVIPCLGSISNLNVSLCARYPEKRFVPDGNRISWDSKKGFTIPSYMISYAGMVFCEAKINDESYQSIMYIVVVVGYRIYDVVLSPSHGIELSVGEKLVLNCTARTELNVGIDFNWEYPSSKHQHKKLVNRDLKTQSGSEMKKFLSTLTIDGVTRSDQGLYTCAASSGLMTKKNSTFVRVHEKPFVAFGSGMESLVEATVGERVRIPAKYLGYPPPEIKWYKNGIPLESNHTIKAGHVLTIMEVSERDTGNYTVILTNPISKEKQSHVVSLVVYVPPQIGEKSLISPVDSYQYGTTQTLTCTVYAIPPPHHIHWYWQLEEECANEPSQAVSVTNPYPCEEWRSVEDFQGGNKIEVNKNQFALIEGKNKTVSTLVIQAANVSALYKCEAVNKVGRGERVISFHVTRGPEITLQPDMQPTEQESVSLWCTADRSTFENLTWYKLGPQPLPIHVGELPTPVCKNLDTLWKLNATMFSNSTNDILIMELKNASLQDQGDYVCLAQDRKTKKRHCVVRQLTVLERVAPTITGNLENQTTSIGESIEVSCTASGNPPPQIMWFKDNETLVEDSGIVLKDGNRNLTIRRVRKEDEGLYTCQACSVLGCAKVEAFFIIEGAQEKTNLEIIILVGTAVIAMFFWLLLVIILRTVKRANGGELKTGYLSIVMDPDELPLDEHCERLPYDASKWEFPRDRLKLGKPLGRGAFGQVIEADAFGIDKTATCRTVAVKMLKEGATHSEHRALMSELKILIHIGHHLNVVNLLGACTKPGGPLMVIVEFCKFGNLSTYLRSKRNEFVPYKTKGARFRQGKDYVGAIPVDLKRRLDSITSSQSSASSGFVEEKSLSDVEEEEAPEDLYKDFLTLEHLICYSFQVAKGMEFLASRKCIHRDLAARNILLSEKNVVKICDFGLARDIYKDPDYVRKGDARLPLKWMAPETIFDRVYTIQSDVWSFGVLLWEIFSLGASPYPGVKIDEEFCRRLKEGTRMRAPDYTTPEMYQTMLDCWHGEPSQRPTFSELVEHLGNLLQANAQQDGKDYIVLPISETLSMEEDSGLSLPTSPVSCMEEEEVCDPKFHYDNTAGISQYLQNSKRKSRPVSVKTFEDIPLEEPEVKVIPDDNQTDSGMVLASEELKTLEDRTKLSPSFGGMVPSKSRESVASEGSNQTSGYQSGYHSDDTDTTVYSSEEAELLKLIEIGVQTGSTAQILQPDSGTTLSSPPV

Ret = biological target: T6, Ret (Homo sapiens, UniProt P07949); assay: AlphaScreen kinase assay, Ret; settings: read-out: IC50, activity toward kinase Ret
T6 construct: P1378.pET-SF BI-PTP RET H661-R1012 HIS; made in house
T6 sequence (P07949 with tags, fused parts or gaps): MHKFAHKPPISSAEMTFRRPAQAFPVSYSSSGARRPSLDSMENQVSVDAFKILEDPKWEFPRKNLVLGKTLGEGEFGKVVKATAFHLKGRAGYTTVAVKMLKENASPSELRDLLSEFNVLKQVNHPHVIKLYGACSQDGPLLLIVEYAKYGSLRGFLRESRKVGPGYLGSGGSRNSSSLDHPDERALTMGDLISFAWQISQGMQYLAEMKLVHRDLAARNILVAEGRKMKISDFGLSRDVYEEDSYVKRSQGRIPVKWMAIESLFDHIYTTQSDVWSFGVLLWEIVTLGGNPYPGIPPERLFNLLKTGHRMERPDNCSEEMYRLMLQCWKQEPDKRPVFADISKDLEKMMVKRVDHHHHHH

Syk = Syk (Homo sapiens, UniProt P43405); assay: AlphaScreen kinase assay, Syk; settings: read-out: IC50, activity toward kinase Syk
Excerpt: AlphaScreen assay was used to screen additional kinases. The assay is similarly dependent on the phosphorylation of a peptide substrate. In this assay, an antibody that recognizes phosphorylated substrate is bound to an acceptor bead. The peptide substrate is attached to biotin, which binds to a donor head that contains streptavidin. Thus phosphorylated substrate is bound by antibody and streptavidin, bringing the donor and acceptor heads into close proximity when kinase is not inhibited. The donor produces singlet oxygen which results in emission from the acceptor when they are in close proximity. Conversely, when kinase is inhibited, the donor and acceptor beads are not associated and the emission from the acceptor is reduced.
AlphaScreen assays were done using compounds dissolved in DMSO to a concentration of 20 mM. The compounds were diluted accordingly to the desired final concentrations in each sample well, using 1:3 serial dilution for a total of 8 concentration points.

IC50 (B-Raf V600E): ≤ 10 µM
IC50 (Btk): ≤ 10 µM
IC50 (FGFR1): ≤ 10 µM
IC50 (Jnk3): ≤ 10 µM
IC50 (Kdr): ≤ 10 µM
IC50 (Ret): ≤ 10 µM
IC50 (Syk): ≤ 10 µM
Structure (SMILES): O=C(O)/C=C/c1cccc(-c2cnc3[nH]cc(C(=O)c4cccc(Cl)c4Cl)c3c2)c1 [Compound P-0089]
